Assay results reported in US20060110385A1, “Means and methods for diagnosing and treating affective disorders” (Affectis Pharmaceuticals AG, priority 2003, published 2006).

Assays:
[1] = target: T1, P2X7R (Homo sapiens, UniProt Q99572); assay: Calcium entry (Fluo-4 AM) in HT-22 cells overexpressing human P2X7R; type: cell-based; design: expressed in transfected cells; details: 20 μM BzATP or 50 μM tenidap
T1 sequence (Q99572 1-595): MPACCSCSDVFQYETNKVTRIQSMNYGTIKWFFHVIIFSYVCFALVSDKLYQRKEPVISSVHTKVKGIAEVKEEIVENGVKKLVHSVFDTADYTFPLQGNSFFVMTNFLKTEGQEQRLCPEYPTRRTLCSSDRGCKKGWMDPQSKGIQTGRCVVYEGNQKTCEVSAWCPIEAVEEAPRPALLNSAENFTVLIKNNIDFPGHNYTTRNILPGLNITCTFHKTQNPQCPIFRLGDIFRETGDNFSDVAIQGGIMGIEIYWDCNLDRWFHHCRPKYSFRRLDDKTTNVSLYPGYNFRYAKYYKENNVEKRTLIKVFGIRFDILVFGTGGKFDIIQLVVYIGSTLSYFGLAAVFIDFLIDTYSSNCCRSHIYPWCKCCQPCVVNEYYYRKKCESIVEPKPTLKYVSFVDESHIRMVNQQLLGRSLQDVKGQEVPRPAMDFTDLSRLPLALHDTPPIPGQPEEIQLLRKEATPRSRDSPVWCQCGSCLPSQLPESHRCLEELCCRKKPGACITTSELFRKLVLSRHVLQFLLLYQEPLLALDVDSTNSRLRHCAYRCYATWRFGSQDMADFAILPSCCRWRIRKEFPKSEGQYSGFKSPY
Description: Yet another method for identifying P2X7R agonists was devised by generating a immortalised mouse cell line that overexpresses the human P2X7R gene under the control of the human cytomegalovirus (CMV) early promoter/enhancer region. The human P2X7R cDNA was inserted into the pcDNA3.1 vector (Invitrogen) and transfected into the mouse hippocampal cell line HT-22 using Lipofectamine (Invitrogen) according to the manufacturer's specifications. One day after transfection, culture medium containing 500 μg/ml G418 was added to the cells. Resistant clones were separately isolated and cultured 14 days after applying the selection medium.
The agonistic activity of a compound was evaluated by measuring calcium entry in the cells that overexpress the human P2X7R. Cells were cultured in 96 well plates and incubated at 37° C. with 5% CO2 DMEM with 10% foetal calf serum (Gibco) until they reached confluence. Cells were then loaded for one hour with 10 μM of Fluo-4 AM (Molecular Probes). Fluo-4 AM is a fluorescent dye that binds to intracellular calcium. […] Agonist activity was detected by measuring an increase in calcium influx which results in increased binding to Fluo-4 AM and increased fluorescence. Changes in fluorescence signal are measured using a Fluostar Optima plate reader (BMG biotech). […] Thus, both compound stimulated the activity of P2X7R which results in an influx of ions into the cells.

[2] = system: DBA/201a mouse strain; assay: Porsolt's forced swim test after intrahippocampal BzATP; type: in vivo; details: 50 μM BzATP, 24 hours after injection
Description: In the present example, the P2X7R agonist was directly injected into the hippocampus of mice. However, a P2X7R agonist agent or compound could also be delivered orally, subcutaneously, intravenously, intra-arterial, intranodal, intramedullary, intrathecal, intraventricular, intranasally, intrabronchial, transdermally, intrarectally, intraperitoneally, intramuscularly, intrapulmonary, vaginally, rectally, or intraocularly.
Four months old male mice were bilaterally implanted with guide cannulae (23 gauge, length 8 mm) by means of a stereotactic instrument (David Kopf Instruments). The coordinates, in relation to bregma, were −2.0 mm posterior, ±1.0 mm lateral, and −1.0 mm ventral. After surgery, the mice were allowed to recover for 10 to 12 days. […] Injections were performed using a 9 mm-30 gauge needle inserted into the guide cannulae and connected via tubing to a 10 μl Hamilton syringe.
The forced swim test is a standard test that measures primary stress-induced reductions in avoidance or escape, termed behavioural despair. The test is used to determine the effectiveness of antidepressants, test new pharmaceutical compounds and validate animal models of depression (Porsolt et al., Arch. Int. Pharmacodym. 229 (1977), 327-336; Porsolt, Rev. Neurosci. 11 (2000), 53-58; Rénéric et al., Behav. Brain Res. 136 (2002), 521-532; Page et al., Psychopharmacology 165 (2003), 194-201; Kelliher et al., Psychoneuroendocrinology 28 (2003), 332-347). The test consists of placing a mouse for a period of 5 minutes into a glass cylinder containing water. Under such circumstances, the mouse cannot touch the bottom of the cylinder and is thus forced to swim. Time, latency and frequency of struggling versus floating are scored as behavioural parameters. […] Increased struggling (i.e. active attempts to escape) indicates active coping behaviour that can be interpreted as an improvement of depression-like symptoms. For example, treatment with serotonergic antidepressants reduce the total time spent floating (Borsini, Neurosci. Biobehav. Rev. 19 (1995), 377-395; Redrobe and Bourin, Psychopharmacology 138 (1998), 198-206, and in parallel increases the time of active behaviour (i.e. swimming or struggling; Lucki et al., Psychopharmacology 155 (2001), 315-322).

[3] = 1 μl each side, not supported statistically
[4] = 1 μl each side, statistically significant

**Q.** With “2′-3′-O-(4-Benzoylbenzoyl)adenosine 5′-triphosphate [BzATP]” as the substance, how does the “fluorescence intensity (calcium influx, Fluo-4 AM)” value [1] read?
**A.** Its value is “rapid increase in fluorescence intensity”.

**Q.** And the time of struggling ([2]; 1 μl each side of hippocampus, statistically significant)?
**A.** Its time of struggling is “increase”.

**Q.** What about the frequency of struggling [2, 3] of the same substance?
**A.** The frequency of struggling was “increase”.

**Q.** And the latency of struggling [2, 3]?
**A.** Its latency of struggling is “decrease”.

**Q.** What about the time of floating [2, 3] of the same substance?
**A.** Its time of floating is “decrease”.

**Q.** What about the frequency of floating [2, 4] of the same substance?
**A.** Its frequency of floating is “decrease”.

**Q.** What about the latency of floating [2, 4] of the same substance?
**A.** The latency of floating was “increase”.
